For assay [1], the system named is pyramidal cell (soma and axon initial segment). Description: Pressure application of GABA to soma and axon initial segment of pyramidal cells. It is filed as cell-based, rat. As to the method:
(§1) For perforated patch experiments, 3 mg/ml gramicidin (Sigma) was used, dissolved in DMSO and diluted to a final concentration of 9 μg/ml in the low [Cl^−]in pipette solution. […] Membrane potentials were corrected for junction potentials. […] Pressure waves (˜5 μm in diameter) and pipette positions on the soma and along the axon initial segment (30-40 μm from the soma) were imaged and the postsynaptic cell membrane was ruptured by gentle suction pulses to allow biocytin labelling and post-hoc comparison of pipette positions with light microscopic reconstructions. Cells were excluded from analysis if basal dendrites were closer than ˜30 μm to the pressure pipette and/or initial segment.
To characterize the interaction of axo-axonic cells (AACs) and their postsynaptic neurons, first the reversal potential of GABAergic inputs arriving to the perisomatic region of pyramidal cells was determined, elicited by AACs and basket cells in layers 2/3 of rat somatosensory cortex in vitro (FIG. 1). Paired recordings of presynaptic interneurons and postsynaptic pyramidal cells were performed using the gramicidin perforated patch placed onto the axon hillock between the soma and the initial segment. […] AACs were identified based on light microscopic reconstructions and analysis showing axonal candles or cartridges specific to this cell type [Szentagothai and Arbib (1974); Somogyi (1977)]

Assay [2] deals with axo-axonic cells (AACs) and postsynaptic neurons, layer 2/3 somatosensory cortex slices. Description: Multiple whole-cell recordings of synaptic event sequences triggered by AACs in rat cortical slices. The format is cell-based. As to the method: as §1
The test system of the next assay is human axo-axonic cell. The note with it: gabazine 20 μM.
[3] abbreviates: gabazine 20 μM, low [Cl−]in, reversible on washout.

“Also recorded” adds a separate entry of the source.

Procedure for human axo-axonic cell: Anaesthesia was induced with intravenous midazolam and fentanyl (0.03 mg/kg and 1-2 μg/kg, respectively). A bolus dose of propofol (1-2 mg/kg) was administered intravenously. To facilitate endotracheal intubation, the patient recieved 0.5 mg/kg rocuronium. After 120 seconds, the trachea was intubated and the patient was ventilated with a mixture of O2—N2O at a ratio of 1:2. Anaesthesia was maintained with sevoflurane at MAC volume of 1.2-1.5. Slices were incubated at room temperature for 1 hour in a solution composed of 130 mM NaCl, 3.5 mM KCl, 1 mM NaH2PO4, 24 mM NaHCO3, 1 mM CaCl2, 3 mM MgSO4 and 10 mM D(+)-glucose, saturated with 95% O2 and 5% CO2. The solution used during recordings differed only in that it contained 3 mM CaCl2 and 1.5 mM MgSO4. Recordings were obtained at ˜35° C. from up to four concomitantly recorded cells visualized in layer 2/3 by infrared differential interference contrast videomicroscopy (Olympus BX60WI microscope, Hamamatsu CCD camera, Luigs & Neumann Infrapatch set-up and two HEKA EPC 10/double patch-clamp amplifiers). Signals were filtered at 8 kHz, digitized at 16 kHz and analyzed with PULSE software (HEKA). Micropipettes (5-7 MW) were filled with three types of solutions. […] Access resistance was continuously monitored throughout perforated patch experiments to check membrane rupture. […]

Take `NCCCC(=O)O` [GABA, gamma-aminobutyric acid]: the “reversal potential of GABA response, soma” value in assay [1] (GABA 1 mM pressure application to soma, perforated patch, n=7) is −71.2±2.7 mV. Besides, in assay [1] (GABA to axon initial segment, high [Cl−]in, whole cell mode, n=4 cells), the “trials with spikes triggered below somatic threshold potential” value is listed as 7±3 % of trials. In addition, the “threshold potential of spikes triggered by GABA applied to axon initial segment” value in assay [1] (high [Cl−]in intracellular solution, whole cell mode, n=4 cells) is listed as −64.2±2.8 mV. Further, in assay [1] (pressure application of GABA to axon initial segment, high [Cl−]in), the “triggering short latency spikes from hyperpolarized membrane potentials” value is on record as “not effective”.

For the molecule `NS(=O)(=O)c1cccc2c1c([N+](=O)[O-])cc1nc(O)c(O)nc12` [NBQX], the “effect on unitary IPSP” value in assay [2] (NBQX 10 μM) is listed as “no effect”. In addition, the “effect on disynaptic EPSPs triggered by AACs” value in assay [2] (NBQX 10 μM, recovery upon washout) was “blocked; also recorded: reversibly eliminated”.

Take `COc1ccc(-c2ccc(=N)n(CCCC(=O)O)n2)cc1` [gabazine]: in assay [2] (setting [3]), the “effect on disynaptic EPSPs triggered by AACs” value was “blocked” and the “effect on monosynaptic (unitary) IPSPs” value is given as “blocked”. The “effect on disynaptic EPSPs and downstream spikes” value in the assay on human axo-axonic cell is listed as “blocked”.

Values taken from patent publication US20090017486A1, “METHOD AND TEST KIT FOR THE IDENTIFICATION OF COMPOUNDS SPECIFICALLY MODULATING THE ACTION OF CORTICAL AXO-AXONIC CELLS” (priority 2005, published 2009).
